{"source": "patent US10081615B2", "about": "“Sulfamate derivative compounds for use in treating or alleviating pain” (Bio-Pharm Solutions Co., Ltd., priority 2013, dated 2018)", "key": {"STZ-induced pain model": {"tested_on": "STZ-induced pain model", "assay": "Antiallodynic activity in the streptozotocin (STZ)-induced diabetic pain model (von Frey)", "type": "in vivo, Sprague-Dawley rats", "conditions": "0.5 h; for ED50: ip", "method": "Male, Sprague-Dawley rats (200-220 g, Nara Bio, Korea) were habituated for 1 week before surgery and allowed free access to food and water throughout the experimentation. Room temperature and humidity were maintained at 24±2° C. and 50±10%, respectively.\nThe STZ-induced diabetic pain model was established with a modified method of Rakieten et al. (1963) and Bertrand Aubel et al. (2004). All animals were fasted for 4 to 6 hr prior to STZ injection. STZ (sigma, USA) was dissolved in 20 mM sodium citrate buffer, pH 5.5 (Sigma. USA) and intraperitoneally injected at 75 mg/kg, 4 ul/g by bodyweight into the rats. Sham controls were injected with same volume of 20 mM sodium citrate buffer, pH 5.5, and vehicle controls were identical to STZ model except for administration of vehicles without treatment. Rats were supplied with 10% sucrose water for 2 days to protect against sudden hypoglycemia, 3 days later, the induction of diabetes was checked by the measurement of tail vein blood glucose levels with a blood glucose meter. (LifeScan OneTouch Ultra, USA). […]\nTactile sensitivity (mechanical allodynia) was evaluated using von Frey monofilaments before and after treatment of the compound of Examples and the animals were included in the study only if the withdrawal threshold value was less than 4 g. […] The tactile sensitivity for the ipsilateral hind paw was measured using the up-and-down method (Dixon, 1980) with seven von Frey monofilaments (0.4, 1, 2, 4, 6, 8, and 15 g) in 3 trials. […] The 50% paw withdrawal threshold for each paw was calculated using the following formula: [Xth] log=[vFr] log+ky where [vFr] is the force of the last von Frey used, k=0.2249 which is the average interval (in log units) between the von Frey monofilaments, and y is a value that depends upon the pattern of withdrawal responses (Dixon, 1980). […]\nThe relative values compared to the sham (% control) were calculated and shown in Table 9, which show an antiallodynic effect of the compound of examples on STZ-induced pain model in rats."}, "SNL model": {"tested_on": "SNL model", "assay": "Antiallodynic activity in the Chung model (SNL, Spinal Nerve Ligation; von Frey)", "type": "in vivo, Sprague-Dawley rats", "method": "Male Sprague-Dawley rats (200-220 g, Orient Bio, Korea) were habituated for 1 week before the experiment and allowed free access to food and water throughout the experimentation. Room temperature and humidity were maintained at 24±2° C. and 50±10%, respectively. The neuropathic surgery (SNL, Spinal Nerve Ligation) model was done as described in Kim and Chung (1992). Briefly, an animal was put under gaseous anesthesia with isoflurane and NO2 with a 4:4 flow ratio. The left lumbar spinal nerves L5 and L6 were isolated and tightly ligated with 4-0 silk thread. The wound was treated with a gentamicin antibiotic solution (4 mg/kg, 4 ul/g by bodyweight), and the wound muscle was closed with Catgut® chrome 4/0 thread and the skin was closed with Dafilon 4/0 thread. Sham controls were prepared in the same manner with the spinal nerves were exposed, but no ligated L5 and L6 nerves. Preparation of the vehicle controls were identical to the group treated with compound, except for administration of vehicles without compound in the vehicle control group.\nTactile sensitivity (mechanical allodynia) was evaluated using von Frey monofilaments before and after treatment and animals the animals were included in the study only if the withdrawal threshold value was less than 4 g. One week after surgery, SNL-operated animals (n=4˜6), sham-operated animals (n=4˜10) and vehicle-operated animals (n=4˜13) were tested for tactile sensitivity with von Frey monofilaments with 3 trials in each animal. All animals were placed in a stainless steel mesh chamber and habituated for 30 min in the test cage. The tactile sensitivity for ipsilateral hind paw was measured using the up-and-down method (Dixon, 1980) with seven von Frey monofilaments (0.4, 1, 2, 4, 6, 8, and 15 g) in 3 trials. The tactile sensitivity test was followed by Dixon's method (Dixon, 1980). The 50% paw withdrawal threshold for each paw was calculated using the following formula: [Xth] log=[vFr] log+ky where [vFr] is the force of the last von Frey used, k=0.2249 which is the average interval (in log units) between the von Frey monofilaments, and y is a value that depends upon the pattern of withdrawal responses (Dixon, 1980).\nAll animals were fasted for 18 h before the administration of the compounds. The antiallodynic effect of the compounds were evaluated at the various doses (n=5˜6), orally administered in a volume of 5 ul/g by bodyweight in a vehicle of 30% (v/v) PEG 400 (Example 7) or 20% (v/v) Tween 80 (Examples 5 and 6) or saline. […]\nThe relative values compared to the sham group (% control) were calculated and are shown in Table 5, which show an antiallodynic effect of the test compounds in the SNL model in rats."}, "[1]": {"conditions": "Rattus norvegicus, po, 1 h, read-out: SNL model: ED50 mg/kg"}}, "note": "Like-named read-outs stand apart in the source and are kept apart here.", "data": [{"smiles": "CC1(C)Oc2ccccc2[C@@H](COS(N)(=O)=O)O1", "note": "[Example 2, ((S)-2,2-dimethyl-4H-benzo[d][1,3]dioxin-4-yl)methyl sulfamate]", "values": [{"measurement": "ED50", "setting": "STZ-induced pain model; rat, intraperitoneal, read-out: STZ model: ED50", "value": 27.4, "unit": "mg/kg"}, {"measurement": "ED50", "setting": "SNL model; rat, oral, 1 h, read-out: SNL model: ED50", "value": 4.5, "unit": "mg/kg"}]}, {"smiles": "CC1(C)Oc2ccccc2[C@H](COS([NH-])(=O)=O)O1.[Na+]", "note": "[Example 58, Sodium (R)-(((2,2-dimethyl-4H-benzo[d][1,3]dioxin-4-yl)methoxy)sulfonyl)amide Trihydrate]", "values": [{"measurement": "ED50", "setting": "SNL model; [1]", "value": 8.9, "unit": "mg/kg"}]}, {"smiles": "CC1(C)Oc2ccccc2C(COS([NH-])(=O)=O)O1.[Na+]", "note": "(centres unmarked) [Example 60, Sodium (((2,2-dimethyl-4H-benzo[d][1,3]dioxin-4-yl)methoxy)sulfonyl)amide Trihydrate]", "values": [{"measurement": "ED50", "setting": "STZ-induced pain model; Rattus norvegicus, read-out: STZ model: ED50 mg/kg", "value": 16.1, "unit": "mg/kg"}, {"measurement": "ED50", "setting": "SNL model; [1]", "value": 3.5, "unit": "mg/kg"}]}, {"smiles": "[NH-]S(=O)(=O)OC[C@H]1OC2(CCCC2)Oc2ccccc21.[Na+]", "note": "[Example 65, Sodium (S)-(((4H-spiro[benzo[d][1,3]dioxine-2,1′-cyclopentan]-4-yl)methoxy)sulfonyl)amide]", "values": [{"measurement": "STZ model: effect (%) compared to control", "setting": "STZ-induced pain model; rat, intraperitoneal, 100 mg/kg administered", "value": "(25.7%, 0.5 h)"}, {"measurement": "ED50", "setting": "SNL model; Rattus norvegicus, po, 0.5 h, read-out: SNL model: ED50 mg/kg", "value": 3.4, "unit": "mg/kg"}]}, {"smiles": "CC1(C)Oc2ccccc2[C@H](COS([NH-])(=O)=O)O1.[K+]", "note": "[Example 70, Potassium (R)-(((2,2-dimethyl-4H-benzo[d][1,3]dioxin-4-yl)methoxy)sulfonyl)amide]", "values": [{"measurement": "response vs control in vivo at 3.5 mg/kg", "setting": "SNL model; Rattus norvegicus, po, 1 h, read-out: SNL model: effect (%) compared to control, rat, oral, 3.5 mg/kg administered, 1 h", "value": 46.7, "unit": "%"}]}]}
